# Source: patent publication US20080161268A1, “[…] AMMONIUM SALT ANTIBACTERIAL AND WATER-BORNE COATING MATERIAL HAVING […] CONTAINING THE SAME” (COMPAL ELECTRONICS, INC., priority 2006, published 2008)
# Columns and labels:
# [1] = Test of the stability of antibacterial in latex paint; assay type: physicochemical; details: pH about 7
# Experimental: Four quaternary ammonium salt antibacterials A, B, C, and D shown in table 1 were prepared respectively, in which A was a quaternary ammonium salt antibacterial having the siloxane structure, and the other three antibacterials B, C, and D were quaternary ammonium salt antibacterials having no siloxane structure. Then, the four antibacterials A, B, C, and D were respectively added into a latex paint, and formulated to have a concentrations of 500, 1500, 2500, and 5000 ppm, and the pH value was adjusted to about 7. Changes of the antibacterials in the latex paint were observed.
# [2] = Potential measurement (surface potential, Zetasizer Nano ZS); assay type: physicochemical; details: concentration about 5%, pH 0-7, FIG. 1
# Experimental: The methanol solution including 45% of the organic quaternary ammonium salt A having the siloxane structure and the methanol solution including 45% of the organic quaternary ammonium salt Bhaving no siloxane structure were respectively adjusted to a pH value of 0-7 by 0.1 N HCl and 0.1 N NaOH, and formulated to have a concentration of about 5%. The surface potentials were measured with Zetasizer, Nano ZS (Malvern, United Kingdom).
# Bacteria = test: Antibiotic experiment according to Japanese Standards Testing Method (JISZ 2801-2000); assay type: cell-based; details: for Antimicrobial Activity Value: versus control group (neat cement paint)
# Experimental: After formulating the organic quaternary ammonium salt having the siloxane structure to have a concentration of 5% and adjusting the pH value to be 7, an antibiotic experiment was performed according to Japanese Standards Testing Method (JISZ 2801-2000).
structure (smiles),measurement,setting,value
CCCCCCCCCCCCCCCCCC[N+](C)(C)[Si](OC)(OC)OC.[Br-] [Antibacterial A],Miscibility in the latex paint,[1]; 500-5000 ppm,good miscibility
same,Changes of the antibacterial in the latex paint,[1]; content of antibacterial 500 ppm,miscible
same,Changes of the antibacterial in the latex paint,[1]; content of antibacterial 1500 ppm,miscible
same,Changes of the antibacterial in the latex paint,[1]; content of antibacterial 2500 ppm,miscible
same,Changes of the antibacterial in the latex paint,[1]; content of antibacterial 5000 ppm,miscible
same,Electronegativity (surface potential) versus pH value,[2],increased with the increment of pH value
same,Bacteriostatic Ratio,Bacteria; 0 h,less than 90%
same,Bacteria count at 0 h * 3 sheets,"Bacteria; 0 h, concentration 5%, pH 7",3.73 × 10^5
same,Antimicrobial Activity Value,Bacteria; 0 h,0.47
same,Bacteriostatic Ratio,Bacteria; 3 h,99%
same,Bacteria count at 3 h * 3 sheets,"Bacteria; 3 h, concentration 5%, pH 7",1.48 × 10^3
same,Antimicrobial Activity Value,Bacteria; 3 h,2.95
same,Bacteriostatic Ratio,Bacteria; 24 h,99.99%
same,Bacteria count at 24 h * 3 sheets,"Bacteria; 24 h, concentration 5%, pH 7",<10
same,Antimicrobial Activity Value,Bacteria; 24 h,4.89
same,Bacteriostatic Ratio,"Bacteria; concentration 5%, pH 7, time not given",greater than 99.99%
